Test [1] deals with T1, Oxysterols receptor LXR-beta (Mus musculus) (UniProt Q60644).
T1 sequence (whole entry): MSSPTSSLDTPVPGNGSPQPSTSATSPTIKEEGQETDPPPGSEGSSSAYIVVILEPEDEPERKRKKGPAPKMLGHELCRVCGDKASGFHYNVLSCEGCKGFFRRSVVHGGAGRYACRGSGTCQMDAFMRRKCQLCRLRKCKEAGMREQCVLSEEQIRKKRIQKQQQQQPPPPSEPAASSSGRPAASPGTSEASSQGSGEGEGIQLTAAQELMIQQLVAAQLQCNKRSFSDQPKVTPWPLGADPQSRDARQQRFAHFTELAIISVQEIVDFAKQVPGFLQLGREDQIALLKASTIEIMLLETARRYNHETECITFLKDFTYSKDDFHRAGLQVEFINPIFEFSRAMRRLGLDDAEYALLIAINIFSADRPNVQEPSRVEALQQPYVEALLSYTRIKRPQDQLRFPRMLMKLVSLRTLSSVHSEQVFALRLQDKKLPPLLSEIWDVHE
Put plainly: Agonist activity at LXRbeta in mouse RAW264.7 cells assessed as induction of ABCA1 promoter activation at 1 uM after 24 hrs by Dual-Glo luciferase reporter gene assay relative to vehicle-treated control. It counts as cell-based. In general terms: A reporter such as luciferase makes a cellular process visible.

Test [2] concerns the target T1, Oxysterols receptor LXR-beta (Mus musculus). Nature of the test: Agonist activity at LXRbeta in mouse BV2 cells assessed as degradation of intracellular soluble amyloid beta42 at 1 uM preincubated for 18 hrs followed by soluble amyloid beta42 addition measured after 24 hrs by ELISA relative to vehicle-treated control. It is filed as cell-based. Conditions: BV-2. (In general: In an ELISA, binding on a coated surface is turned into a signal by an enzyme label.)

For the compound `Nc1ccc(C(=O)/C=C/c2ccc3c(c2)OCO3)c(O)c1`, the fold change (FC) in test [1] came out at 1.92. For the same compound, the Activity in test [2] was determined as 40%.

Regarding `Nc1ccc(C(=O)/C=C/c2ccc(F)cc2)c(O)c1`, the fold change (FC) in test [1] came out at 1.36.

With `Cc1ccc(/C=C/C(=O)c2ccc(N(C)C)cc2O)o1`, the fold change (FC) in test [1] was determined as 1.02.

`O=c1cc(-c2ccc3ccccc3n2)oc2cc(O)ccc12`: the fold change (FC) in test [1] stood at 1.36.

With `Nc1ccc(C(=O)/C=C/c2cc(C(F)(F)F)cc(C(F)(F)F)c2)c(O)c1`, in test [1], the fold change (FC) came out at 1.12.

Take `O=c1cc(-c2csc3ccccc23)oc2cc(O)ccc12`: the fold change (FC) in test [1] was 1.44.

As to `CC1=C(/C=C/C(C)=C\C=C\C(C)=C\C(=O)O)C(C)(C)CCC1`, the fold change (FC) in test [1] is 2.18.

On to `CCOc1ccc(/C=C/C(=O)c2ccc(N)cc2OC)cc1`, for which the fold change (FC) in test [1] is 1.06.

With `COc1cc(N)ccc1C(=O)/C=C/c1ccc2ccccc2c1`, in test [1], the fold change (FC) came to 0.88.

For `O=c1cc(-c2ccc3ccccc3c2)oc2cc(O)ccc12`, in test [1], the fold change (FC) came to 1.57. For the same compound, the Activity in test [2] amounted to 7%.

As to `Nc1ccc(C(=O)/C=C/c2c[nH]c3ccccc23)c(O)c1`, the fold change (FC) in test [1] stood at 1.76. In addition, the Activity in test [2] stood at 39%.

Take `Cc1ccc(-c2cc(=O)c3ccc(N)cc3o2)s1`: the fold change (FC) in test [1] was 1.47.

For the compound `CC(C)c1ccc(-c2cc(=O)c3ccc(O)cc3o2)cc1`, the fold change (FC) in test [1] came to 1.22.

As to `COc1cc(N)ccc1C(=O)/C=C/c1ccc(C)o1`, the fold change (FC) in test [1] was found to be 1.2.

For `Cc1ccc(-c2cc(=O)c3ccc(N)cc3o2)o1`, the fold change (FC) in test [1] was determined as 1.3.

Consider `Nc1ccc(C(=O)/C=C/c2csc3ccccc23)c(O)c1`, for which the fold change (FC) in test [1] is 2.31. Moreover, the Activity in test [2] amounted to 42%.

Turning to `COc1cc(/C=C/C(=O)c2ccc(N)cc2O)cc(OC)c1OC`, the fold change (FC) in test [1] came out at 0.98.

As to `CC(C)c1ccc(/C=C/C(=O)c2ccc(N)cc2O)cc1`, the fold change (FC) in test [1] came to 2.05.

On to `Nc1ccc(C(=O)CCc2ccc3ccccc3c2)c(O)c1`, for which the fold change (FC) in test [1] was 1.34.

`CC(=O)Nc1ccc(C(=O)/C=C/c2ccc(C)s2)c(O)c1`: the fold change (FC) in test [1] came out at 1.08.

As to `COc1cc(N(C)C)ccc1C(=O)/C=C/c1ccc(C)o1`, the fold change (FC) in test [1] was found to be 1.57.

For the compound `CN(CCOc1ccc(CC2SC(=O)NC2=O)cc1)c1ccccn1` (stereo not given), the fold change (FC) in test [1] was 1.19.

For the compound `COc1ccc(-c2ccc(-c3cc(=O)c4ccc(O)cc4o3)s2)cc1`, in test [1], the fold change (FC) came to 1.03.

As for `Nc1ccc(C(=O)/C=C/c2ccc(Cl)cc2)c(O)c1`, the fold change (FC) in test [1] turned out to be 1.16.

`CCOc1ccc(/C=C/C(=O)c2ccc(N)cc2O)cc1`: the fold change (FC) in test [1] came to 1.92. The Activity in test [2] stood at 16%.

As to `Nc1ccc(C(=O)/C=C/c2ccc(-c3ccccc3)cc2)c(O)c1`, the fold change (FC) in test [1] was 1.55.

Take `Cc1ccc(/C=C/C(=O)c2ccc(N)cc2O)s1`: the fold change (FC) in test [1] turned out to be 2. In test [2], the Activity was determined as 37%.

In the case of `O=c1cc(-c2ccc(-c3ccccc3)cc2)oc2cc(O)ccc12`, the fold change (FC) in test [1] came out at 1.15.

Turning to `COc1cc(N(C)C)ccc1C(=O)/C=C/c1ccc2ccccc2c1`, the fold change (FC) in test [1] was 1.35.

In the case of `O=c1cc(-c2cccc(Oc3ccccc3)c2)oc2cc(O)ccc12`, the fold change (FC) in test [1] was 1.17.

Regarding `CCOc1ccc(-c2cc(=O)c3ccc(N)cc3o2)cc1`, the fold change (FC) in test [1] stood at 1.37.

Take `CCOc1ccc(/C=C/C(=O)c2ccc(N)cc2O)cc1OC`: in test [1], the fold change (FC) stood at 1.86. Further, the Activity in test [2] is 23%.

Consider `CC(C)OC(=O)C(C)(C)Oc1ccc(C(=O)c2ccc(Cl)cc2)cc1`, for which the fold change (FC) in test [1] was found to be 1.1.

Consider `Cc1ccc(CCC(=O)c2ccc(N)cc2O)o1`, for which the fold change (FC) in test [1] came out at 1.9.

In the case of `COc1cc(N)ccc1C(=O)/C=C/c1ccc(C)s1`, the fold change (FC) in test [1] is 1.5.

In the case of `COc1ccc(-c2ccc(/C=C/C(=O)c3ccc(N)cc3O)s2)cc1`, in test [1], the fold change (FC) stood at 1.09.

Consider `COc1cccc(/C=C/C(=O)c2ccc(N)cc2O)c1`, for which the fold change (FC) in test [1] is 2.09. Moreover, the Activity in test [2] was determined as 33%.

Regarding `CCc1ccc(/C=C/C(=O)c2ccc(N)cc2O)cc1`, the fold change (FC) in test [1] came out at 1.73.

With `CSc1ccc(/C=C/C(=O)c2ccc(N)cc2O)cc1`, in test [1], the fold change (FC) was 1.26.

As to `Nc1ccc(C(=O)/C=C/c2cccc(Oc3ccccc3)c2)c(O)c1`, the fold change (FC) in test [1] came to 1.76.

In the case of `O=C(O)c1ccc(-c2cc(=O)c3ccc(O)cc3o2)cc1`, the fold change (FC) in test [1] came out at 1.66. The Activity in test [2] worked out at 18%.
